*1 amine or outer side, *2 acyl side, *3 side chain or, on linkers, in order; H or OH if unused. Where a SMILES comes first, the peptide text is derived from it. Bridges are numbered along the chain shown (N, C = ends). [ ]: non-standard residue; d: D form. The star is where a group is joined. X1 = COc1cc2cc(c1Cl)N(C)C(=O)C[C@H](OC(=O)[C@H](C)N(C)C(=O)CCSSC(C)CCC(=O)*)[C@]1(C)O[C@H]1[C@H](C)[C@@H]1C[C@@](O)(NC(=O)O1)[C@H](OC)/C=C/C=C(\C)C2; 1Nal = N[C@@H](Cc1cccc2ccccc12)C(=O)O; TBMB = c1c(C[*:1])cc(C[*:3])cc1C[*:2]; Tle = CC(C)(C)[C@H](N)C(=O)O; βAla = NCCC(=O)O; Sar = CNCC(=O)O
Test system: NCI-H1975 xenograft
Assay: In vivo efficacy of BT1718 in NCI-H1975 xenograft
Set-up: species or system Mus Musculus; key to Best response at 10 mg/kg: CR complete response; PR partial response
Protocol: The objective of this study was to evaluate the in vivo anti-tumor efficacy of BT1718in treatment of HT1080, NCI-H292, NCI-H1975, MDA-MB-231, HCC1806, RPMI2650, HCT-15, HT-29 and SNU-16 xenograft in BALB/c nude mice.
The HT1080, NCI-H292, NCI-H1975, MDA-MB-231, HCC1806, RPMI2650, HCT-15, HT-29 and SNU-16 tumor cells were maintained in vitro as a monolayer culture in medium supplemented with 10% heat inactivated fetal bovine serum at 37° C. in an […]. The tumor cells will be routinely subcultured twice weekly by trypsin-EDTA treatment. The cells growing in an exponential growth phase will be harvested and counted for tumor inoculation.
Mouse was inoculated subcutaneously at the right flank with tumor cells for tumor development. The animals were randomized and treatment was started when the average tumor reaches certain volume for the efficacy study, the inoculating cell amounts and starting tumor size were shown as below in Table 9. The test article administration and the animal numbers in each group were shown in the experimental design in Table 10.
All the procedures related to animal handling, care and the treatment in the study were performed according to the guidelines of the Association for Assessment and Accreditation of Laboratory Animal Care (AAALAC). At the time of routine monitoring, the animals were daily checked for any effects of tumor growth and treatments on normal behavior such as mobility, food and water consumption (by looking only), body weight gain/loss (body weights were measured every day), eye/hair matting and any other abnormal effect as stated in the protocol. Death and observed clinical signs were recorded on the basis of the numbers of animals within each subset.
The major endpoint was to see if the tumor growth could be delayed or mice could be cured. Tumor size was measured three times weekly in two dimensions using a caliper, and the volume was expressed in mm^3 using the formula: V=0.5 a×b^2 where a and b are the long and short diameters of the tumor, respectively. The tumor size was then used for calculations of T/C value. The T/C value (in percent) is an indication of antitumor effectiveness; T and C are the mean volumes of the treated and control groups, respectively, on a given day.
TGI was calculated for each group using the formula: TGI (%)=[1−(Ti−T0)/(Vi−V0)]×100; Ti is the average tumor volume of a treatment group on a given day, T0 is the average tumor volume of the treatment group on the day of treatment start, Vi is the average tumor volume of the vehicle control group on the same day with Ti, and V0 is the average tumor volume of the vehicle group on the day of treatment start.
Summary statistics, including mean and the standard error of the mean (SEM), are provided for the tumor volume of each group at each time point.
Statistical analysis of difference in tumor volume among the groups was conducted on the data obtained at the best therapeutic time point after the final dose.
A one-way ANOVA was performed to compare tumor volume among groups, and when a significant F-statistics (a ratio of treatment variance to the error variance) was obtained, comparisons between groups were carried out with Games-Howell test. All data were analyzed using Prism. P<0.05 was considered to be statistically significant.

With `COc1cc2cc(c1Cl)N(C)C(=O)C[C@H](OC(=O)[C@H](C)N(C)C(=O)CCSSC(C)CCC(=O)NCCC(=O)N(C)CC(=O)N(C)CC(=O)N(C)CC(=O)N(C)CC(=O)N(C)CC(=O)N(C)CC(=O)N(C)CC(=O)N(C)CC(=O)N(C)CC(=O)N(C)CC(=O)N[C@@H](C)C(=O)N[C@H]1CSCc3cc4cc(c3)CSC[C@H](NC(=O)[C@@H](C)NC(=O)[C@H](Cc3cccc5ccccc35)NC(=O)[C@H](CCC(=O)O)NC(=O)[C@H](CC(N)=O)NC(=O)[C@@H](C)NC1=O)C(=O)N[C@@H](CCC(=O)O)C(=O)N[C@@H](CC(=O)O)C(=O)N[C@@H](Cc1ccccc1)C(=O)N[C@@H](Cc1ccc(O)cc1)C(=O)N[C@@H](CC(=O)O)C(=O)N[C@@H](C(C)(C)C)C(=O)N[C@H](C(N)=O)CSC4)[C@]1(C)O[C@H]1[C@H](C)[C@@H]1C[C@@](O)(NC(=O)O1)[C@H](OC)/C=C/C=C(\C)C2` (stereo partly shown) [BT1718] ({X1-βAla}-[Sar][Sar][Sar][Sar][Sar][Sar][Sar][Sar][Sar][Sar]AC[dA]NE[1Nal][dA]CEDFYD[Tle]C-NH2; linker 12-18-25 via TBMB (inferred)) the “Body Weight” value (1 mpk biw, day 0) was 23.9 ± 0.7 g, the “Tumor Volume” value (1 mpk biw, day 0) was 170 ± 9 mm^3 and the “Body Weight” value (1 mpk biw, day 2) was 23.5 ± 0.7 g. For the same compound, the “Tumor Volume” value (1 mpk biw, day 2) was 224 ± 33 mm^3, the “Body Weight” value (1 mpk biw, day 4) was 24.0 ± 0.9 g and the “Tumor Volume” value (1 mpk biw, day 4) was 352 ± 69 mm^3. The “Body Weight” value (1 mpk biw, day 7) was 24.4 ± 0.7 g, the “Tumor Volume” value (1 mpk biw, day 7) was 587 ± 134 mm^3 and the “Body Weight” value (1 mpk biw, day 9) was 24.6 ± 0.8 g. The “Tumor Volume” value (1 mpk biw, day 9) was 840 ± 155 mm^3, the “Body Weight” value (1 mpk biw, day 11) was 25.2 ± 1.1 g and the “Tumor Volume” value (1 mpk biw, day 11) was 1265 ± 144 mm^3. For the same compound, the “Body Weight” value (1 mpk biw, day 14) was 26.0 ± 1.0 g, the “Tumor Volume” value (1 mpk biw, day 14) was 1455 ± 130 mm^3 and the “Body Weight” value (3 mpk biw, day 0) was 23.6 ± 0.4 g. The “Tumor Volume” value (3 mpk biw, day 0) was 166 ± 13 mm^3, the “Body Weight” value (3 mpk biw, day 2) was 23.6 ± 0.5 g and the “Tumor Volume” value (3 mpk biw, day 2) was 241 ± 20 mm^3. The “Body Weight” value (3 mpk biw, day 4) was 24.0 ± 0.8 g, the “Tumor Volume” value (3 mpk biw, day 4) was 377 ± 38 mm^3 and the “Body Weight” value (3 mpk biw, day 7) was 24.8 ± 0.8 g. For the same compound, the “Tumor Volume” value (3 mpk biw, day 7) was 605 ± 84 mm^3, the “Body Weight” value (3 mpk biw, day 9) was 24.4 ± 0.9 g and the “Tumor Volume” value (3 mpk biw, day 9) was 732 ± 95 mm^3. The “Body Weight” value (3 mpk biw, day 11) was 25.1 ± 0.8 g, the “Tumor Volume” value (3 mpk biw, day 11) was 1095 ± 207 mm^3 and the “Body Weight” value (3 mpk biw, day 14) was 25.0 ± 0.7 g. For the same compound, the “Tumor Volume” value (3 mpk biw, day 14) was 1343 ± 349 mm^3, the “Body Weight” value (10 mpk biw, day 0) was 23.3 ± 1.4 g and the “Tumor Volume” value (10 mpk biw, day 0) was 168 ± 6 mm^3. For the same compound, the “Body Weight” value (10 mpk biw, day 2) was 22.5 ± 1.7 g, the “Tumor Volume” value (10 mpk biw, day 2) was 209 ± 31 mm^3 and the “Body Weight” value (10 mpk biw, day 4) was 22.4 ± 1.7 g. The “Tumor Volume” value (10 mpk biw, day 4) was 269 ± 23 mm^3, the “Body Weight” value (10 mpk biw, day 7) was 22.6 ± 1.9 g and the “Tumor Volume” value (10 mpk biw, day 7) was 419 ± 22 mm^3. For the same compound, the “Body Weight” value (10 mpk biw, day 9) was 22.4 ± 1.8 g, the “Tumor Volume” value (10 mpk biw, day 9) was 442 ± 23 mm^3 and the “Body Weight” value (10 mpk biw, day 11) was 22.3 ± 1.9 g. For the same compound, the “Tumor Volume” value (10 mpk biw, day 11) was 442 ± 26 mm^3, the “Body Weight” value (10 mpk biw, day 14) was 22.7 ± 2.0 g and the “Tumor Volume” value (10 mpk biw, day 14) was 421 ± 31 mm^3. For the same compound, the “Best response at 10 mg/kg” value (NCI-H1975, 10 mg/kg) was “CR”, the TGI (NCI-H1975, 1 mpk, biw, day 14) was 3.0% and the “Tumor Volume” value (NCI-H1975, 1 mpk, biw, day 14) was 1455 ± 130 mm^3. For the same compound, the TGI (NCI-H1975, 3 mpk, biw, day 14) was 11.2%, the “Tumor Volume” value (NCI-H1975, 3 mpk, biw, day 14) was 1343 ± 349 mm^3 and the TGI (NCI-H1975, 10 mpk, biw, day 14) was 80.9%. The “Tumor Volume” value (NCI-H1975, 10 mpk, biw, day 14) was 421 ± 31 mm^3, the “Minimally Effective Dose IV BIW” value (NCI-H1975, dose leading to tumor-stasis) was under 10 mg/kg and the “tumor volume after regression” value (after 4 weeks 10 mg/kg biw) was “below 50 mm3”. The body weight effect (at PG-D40) was “marked body weight lost”.
